Read-outs that look alike come from different tables or passages of the source.
Tests used:
[1] = system: carbapenem resistant Acinetobacter baumannii; assay: MIC of antibiotics with Compound 1 against panel of 503 carbapenem resistant Acinetobacter baumannii clinical isolates; assay type: cell-based; conditions: carbapenem resistant Acinetobacter baumannii (N = 503); antibiotic alone
Description: In another experiment, various antibiotics, meropenem, cefepime, ceftolozane and cefiderocol, were tested in combination with Compound 1 at 4 μg/ml and 8 μg/ml against the panel of 503 clinical isolates of carbapenem resistant Acinetobacter baumannii. […] Cefiderocol was tested at standard conditions, in […] media.

[2] = system: Pseudomonas aeruginosa (PA); assay: Broth microdilution MIC of β-lactams alone and with Compound 1 against Pseudomonas aeruginosa clinical isolates (representative and challenge panels); assay type: cell-based; conditions: for MIC Distribution, % of isolates: Compound 1 at 8 μg/mL; for MIC Distribution, % of isolates / Minimum Inhibitory Concentration Distribution, % of isolates: AVI and TAZ at 4 μg/mL; for Minimum Inhibitory Concentration Distribution, % of isolates: representative panel of PA (N = 500), without Compound 1; for % susceptible, [S] / MIC50 / MIC90: Compound 1, AVI, and TAZ at fixed 4 μg/mL; for % susceptible, [S]: breakpoints MER ≤8, TOL ≤4, CAZ ≤8 μg/mL; for MIC50 / MIC90: Pseudomonas aeruginosa
Description: (§1) In this example the in vitro activity of Compound 1 was evaluated in combination with several β-lactams including sulbactam, meropenem, and ceftolozane against clinical isolates of carbapenem-resistant (CR) Acinetobacter baumannii (AB) and Pseudomonas aeruginosa (PA).

[3] = system: carbapenem resistant Enterobacteriaceae (CRE); assay: MIC of antibiotics with Compound 1 against panel of 510 CRE clinical isolates; assay type: cell-based; conditions: antibiotic alone
Description: In this example, the antibiotics meropenem, cefepime, ceftolozane and cefiderocol, were tested in combination with Compound 1 at 4 μg/ml and 8 μg/ml against a panel of 510 clinical isolates representing various types of carbapenem resistant Enterobacteriaceae (CRE). Cefiderocol was tested at standard conditions, in […] media.

[4] = system: carbapenem-resistant (CR) Acinetobacter baumannii (AB); assay: Broth microdilution MIC of β-lactams alone and with Compound 1 against carbapenem-resistant Acinetobacter baumannii clinical isolates; assay type: cell-based; conditions: Compound 1 at fixed 4 μg/mL; for % susceptible, [S]: breakpoints MER ≤8 μg/mL, TOL ≤4 μg/mL
Description: as §1

P. aeruginosa = assay: Susceptibility testing of 262 P. aeruginosa strains with meropenem MIC >2 μg/mL; assay type: cell-based, Pseudomonas aeruginosa; conditions: Compound 1 at 8 μg/mL, breakpoints ≤8 μg/mL meropenem and cefepime, ≤4 μg/mL ceftolozane, ≤16 μg/mL piperacillin
Description: In addition, 509 Carbapenem-Resistant Enterobacteriaceae were tested with meropenem, cefepime, and ceftolozane alone and in combination with Compound 1 at 8 μg/mL. Furthermore, 262 strains of P. aeruginosa with a meropenem MIC>2 μg/mL were tested with meropenem, ceftolozane, cefepime and piperacillin alone and in combination with Compound 1 at 8 μg/mL.
262 strains of P. aeruginosa having a meropenem MIC greater than 2 μg/mL were tested with meropenem, ceftolozane, cefepime and piperacillin alone and Compound 1 at 8 μg/mL.

[5] = non-carbapenemase producing CRE, N = 45

## C[C@@H](O)[C@H]1C(=O)N2C(C(=O)O)=C(S[C@@H]3CN[C@H](C(=O)N(C)C)C3)[C@H](C)[C@H]12 [MER, meropenem]
[1]
  MIC50: > 32 µg/mL
  MIC90: > 32 µg/mL
[2]; MIC 0.125 μg/mL, PA CAZ-AVI R (CAZ-AVI >8 μg/mL)
  MIC Distribution, % of isolates: .3%
[2]; MIC 0.125 μg/mL, PA MER NS (MER >2 μg/mL), N = 612
  MIC Distribution, % of isolates: 0.0%
[2]; MIC 0.125 μg/mL, PA TOL-TAZ NS (TOL-TAZ >4 μg/mL)
  MIC Distribution, % of isolates: 1.3%
[2]; MIC 0.125 μg/mL
  Minimum Inhibitory Concentration Distribution, % of isolates: 14.2%
[2]; MIC 0.25 μg/mL, PA CAZ-AVI R (CAZ-AVI >8 μg/mL)
  MIC Distribution, % of isolates: .6%
[2]; MIC 0.25 μg/mL, PA MER NS (MER >2 μg/mL), N = 612
  MIC Distribution, % of isolates: .0%
[2]; MIC 0.25 μg/mL, PA TOL-TAZ NS (TOL-TAZ >4 μg/mL)
  MIC Distribution, % of isolates: 2.7%
[2]; MIC 0.25 μg/mL
  Minimum Inhibitory Concentration Distribution, % of isolates: 33.0%
[2]; MIC 0.5 μg/mL, PA CAZ-AVI R (CAZ-AVI >8 μg/mL)
  MIC Distribution, % of isolates: .2%
[2]; MIC 0.5 μg/mL, PA MER NS (MER >2 μg/mL), N = 612
  MIC Distribution, % of isolates: .0%
[2]; MIC 0.5 μg/mL, PA TOL-TAZ NS (TOL-TAZ >4 μg/mL)
  MIC Distribution, % of isolates: 3.7%
[2]; MIC 0.5 μg/mL
  Minimum Inhibitory Concentration Distribution, % of isolates: 51.0%
[2]; MIC 1 μg/mL, PA CAZ-AVI R (CAZ-AVI >8 μg/mL)
  MIC Distribution, % of isolates: .5%
[2]; MIC 1 μg/mL, PA MER NS (MER >2 μg/mL), N = 612
  MIC Distribution, % of isolates: .0%
[2]; MIC 1 μg/mL, PA TOL-TAZ NS (TOL-TAZ >4 μg/mL)
  MIC Distribution, % of isolates: 6.0%
[2]; MIC 1 μg/mL
  Minimum Inhibitory Concentration Distribution, % of isolates: 66.2%
[2]; MIC 2 μg/mL, PA CAZ-AVI R (CAZ-AVI >8 μg/mL)
  MIC Distribution, % of isolates: .8%
[2]; MIC 2 μg/mL, PA MER NS (MER >2 μg/mL), N = 612
  MIC Distribution, % of isolates: .0%
[2]; MIC 2 μg/mL, PA TOL-TAZ NS (TOL-TAZ >4 μg/mL)
  MIC Distribution, % of isolates: 8.7%
[2]; MIC 2 μg/mL
  Minimum Inhibitory Concentration Distribution, % of isolates: 73.2%
[2]; MIC 4 μg/mL, PA CAZ-AVI R (CAZ-AVI >8 μg/mL)
  MIC Distribution, % of isolates: 1.0%
[2]; MIC 4 μg/mL, PA MER NS (MER >2 μg/mL), N = 612
  MIC Distribution, % of isolates: .5%
[2]; MIC 4 μg/mL, PA TOL-TAZ NS (TOL-TAZ >4 μg/mL)
  MIC Distribution, % of isolates: 13.7%
[2]; MIC 4 μg/mL
  Minimum Inhibitory Concentration Distribution, % of isolates: 79.8%
[2]; MIC 8 μg/mL, PA CAZ-AVI R (CAZ-AVI >8 μg/mL)
  MIC Distribution, % of isolates: 8.2%
[2]; MIC 8 μg/mL, PA MER NS (MER >2 μg/mL), N = 612
  MIC Distribution, % of isolates: 7.5%
[2]; MIC 8 μg/mL, PA TOL-TAZ NS (TOL-TAZ >4 μg/mL)
  MIC Distribution, % of isolates: 22.1%
[2]; MIC 8 μg/mL
  Minimum Inhibitory Concentration Distribution, % of isolates: 84.8%
[2]; MIC 16 μg/mL, PA CAZ-AVI R (CAZ-AVI >8 μg/mL)
  MIC Distribution, % of isolates: 8.9%
[2]; MIC 16 μg/mL, PA MER NS (MER >2 μg/mL), N = 612
  MIC Distribution, % of isolates: 6.7%
[2]; MIC 16 μg/mL, PA TOL-TAZ NS (TOL-TAZ >4 μg/mL)
  MIC Distribution, % of isolates: 32.8%
[2]; MIC 16 μg/mL
  Minimum Inhibitory Concentration Distribution, % of isolates: 90.4%
[2]; MIC 32 μg/mL, PA CAZ-AVI R (CAZ-AVI >8 μg/mL)
  MIC Distribution, % of isolates: 3.2%
[2]; MIC 32 μg/mL, PA MER NS (MER >2 μg/mL), N = 612
  MIC Distribution, % of isolates: 0.4%
[2]; MIC 32 μg/mL, PA TOL-TAZ NS (TOL-TAZ >4 μg/mL)
  MIC Distribution, % of isolates: 58.2%
[2]; MIC 32 μg/mL
  Minimum Inhibitory Concentration Distribution, % of isolates: 95.4%
[2]; MIC >32 μg/mL, PA CAZ-AVI R (CAZ-AVI >8 μg/mL)
  MIC Distribution, % of isolates: 100.0%
[2]; MIC >32 μg/mL, PA MER NS (MER >2 μg/mL), N = 612
  MIC Distribution, % of isolates: 100.0%
[2]; MIC >32 μg/mL, PA TOL-TAZ NS (TOL-TAZ >4 μg/mL)
  MIC Distribution, % of isolates: 100.0%
[2]; MIC >32 μg/mL
  Minimum Inhibitory Concentration Distribution, % of isolates: 100.0%
[2]; MIC ≤0.06 μg/mL
  Minimum Inhibitory Concentration Distribution, % of isolates: 4.8%
[2]; MIC ≥0.06 μg/mL, PA CAZ-AVI R (CAZ-AVI >8 μg/mL)
  MIC Distribution, % of isolates: .3%
[2]; MIC ≥0.06 μg/mL, PA MER NS (MER >2 μg/mL), N = 612
  MIC Distribution, % of isolates: 0.0%
[2]; MIC ≥0.06 μg/mL, PA TOL-TAZ NS (TOL-TAZ >4 μg/mL)
  MIC Distribution, % of isolates: 0.3%
[2]; PA (CAZ-AVI MIC >8) (37)
  % susceptible, [S]: (18.9) %
  MIC50: 32 µg/mL
  MIC90: > 32 µg/mL
[2]; PA (Challenge, 652)
  % susceptible, [S]: (31.9) %
  MIC50: 16 µg/mL
  MIC90: > 32 µg/mL
[2]; PA (MER MIC >2) (612)
  % susceptible, [S]: (27.5) %
  MIC50: 32 µg/mL
  MIC90: > 32 µg/mL
[2]; PA (Representative, 500)
  % susceptible, [S]: (84.8) %
  MIC50: 0.5 µg/mL
  MIC90: 16 µg/mL
[2]; PA (TOL-TAZ MIC >4) (39)
  % susceptible, [S]: (21.1) %
  MIC50: 32 µg/mL
  MIC90: > 32 µg/mL
[3]; CRE KPC, N = 168
  MIC50: 32 µg/mL
  MIC90: > 32 µg/mL
[3]; CRE MBL, N = 145
  MIC50: > 32 µg/mL
  MIC90: > 32 µg/mL
[3]; CRE OXA, N = 152
  MIC50: 32 µg/mL
  MIC90: > 32 µg/mL
[3]; [5]
  MIC50: 8 µg/mL
  MIC90: 16 µg/mL
[4]; AB CP (100), defined carbapenemases
  % susceptible, [S]: (0.0) %
[4]; Acinetobacter baumannii, AB CP (100), defined carbapenemases, read-out: MIC50
  MIC50: > 32 µg/mL
[4]; Acinetobacter baumannii, AB CP (100), defined carbapenemases, read-out: MIC90
  MIC90: > 32 µg/mL
[4]; CRAB (300)
  MIC50: >32/>32 μg/mL
  MIC90: >32/>32 μg/mL
  % susceptible, [S]: (1.0) %
P. aeruginosa; All strains (N = 262), meropenem MIC >2 μg/mL
  % of susceptible organisms at breakpoints: 42%
P. aeruginosa; MBL (N = 56)
  % of susceptible organisms at breakpoints: 7%
P. aeruginosa; No MBL (N = 206)
  % of susceptible organisms at breakpoints: 51%

From patent publication US12636297B2, “Boronic acid derivatives and therapeutic uses thereof” (priority 2019, dated 2026)
